Reference: patent US12643903B2, “Bifunctional compounds for degradation of EGFR and related methods of use” (BeiGene, Ltd., priority 2020, dated 2026)

What was measured:
Format in all cases: cell-based
Conditions in all cases: 16 h treatment, EGFR degradation by HTRF
EGFR LTC = biological target: T1, EGFR LTC (Homo sapiens, UniProt P00533, C797S/L858R/T790M); test: Cell Degradation 3: EGFR degradation in BaF3 cells (LTC), HTRF assay
T1 construct: expressed in transfected cells; host or cells: BaF3
T1 sequence (P00533 25-1210 T790M/C797S/L858R): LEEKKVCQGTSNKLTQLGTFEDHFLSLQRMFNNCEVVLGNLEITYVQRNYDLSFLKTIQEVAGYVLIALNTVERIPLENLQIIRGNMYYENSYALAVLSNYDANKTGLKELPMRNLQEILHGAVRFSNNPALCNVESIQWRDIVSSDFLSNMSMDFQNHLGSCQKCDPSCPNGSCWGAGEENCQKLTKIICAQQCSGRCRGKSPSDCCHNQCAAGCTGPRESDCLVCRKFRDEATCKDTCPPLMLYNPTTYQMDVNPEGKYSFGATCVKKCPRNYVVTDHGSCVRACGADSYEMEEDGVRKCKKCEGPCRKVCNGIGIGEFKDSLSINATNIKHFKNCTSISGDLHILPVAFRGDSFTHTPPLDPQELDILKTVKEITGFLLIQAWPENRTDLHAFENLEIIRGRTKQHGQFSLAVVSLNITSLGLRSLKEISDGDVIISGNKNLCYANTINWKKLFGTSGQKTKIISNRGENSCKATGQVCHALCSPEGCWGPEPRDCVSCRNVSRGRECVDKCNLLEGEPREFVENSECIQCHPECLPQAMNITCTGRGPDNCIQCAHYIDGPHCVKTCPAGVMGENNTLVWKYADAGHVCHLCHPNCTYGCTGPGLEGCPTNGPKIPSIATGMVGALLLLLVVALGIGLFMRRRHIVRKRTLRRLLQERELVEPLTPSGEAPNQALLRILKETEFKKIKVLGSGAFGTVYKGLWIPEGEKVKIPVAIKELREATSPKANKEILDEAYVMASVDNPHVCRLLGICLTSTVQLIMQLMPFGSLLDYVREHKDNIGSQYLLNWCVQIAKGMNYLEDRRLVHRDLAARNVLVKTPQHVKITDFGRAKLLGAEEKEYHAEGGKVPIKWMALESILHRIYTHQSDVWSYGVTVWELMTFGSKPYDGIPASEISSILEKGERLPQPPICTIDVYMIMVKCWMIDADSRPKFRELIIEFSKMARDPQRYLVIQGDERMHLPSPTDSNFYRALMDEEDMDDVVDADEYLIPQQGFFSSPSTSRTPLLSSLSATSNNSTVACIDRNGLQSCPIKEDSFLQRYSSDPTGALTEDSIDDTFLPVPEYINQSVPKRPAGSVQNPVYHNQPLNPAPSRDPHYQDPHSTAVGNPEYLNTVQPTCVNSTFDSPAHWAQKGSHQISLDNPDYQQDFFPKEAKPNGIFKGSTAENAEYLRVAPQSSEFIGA
Method: (§1) Cell Degradation 3 Cell Treatment
(§2) BaF3 cells are treated with compounds diluted in 0.2% DMSO, dilution is done according to the following protocol: (1) make 500× stock solution in DMSO from 5 mM by 4-fold dilution, total 8 doses were included; (2) make 2× solution in cell culture medium by transferring 0.5 μl 500× stock solution into 125 μl medium; (3) 30 μl of 2× solution is added to cells and incubate for 16 h.
(§3) After 16 h treatment, add 20 μl 4×lysis buffer to each well; seal the plate and incubate 1 hour at room temperature on a plate shaker; Once the cells are lysed, 16 μL of cell lysate are transferred to a PE 384-well HTRF detection plate (for triple mutant cells, the lysate were diluted by the qual volume 1×lysis buffer before transfer); 4 μL of pre-mixed HTRF antibodies are added to each well; Cover the plate with a plate sealer, spin 1000 rpm for 1 min, Incubate overnight at room temperature; Read on BMG PheraStar with HTRF protocol (337 nm-665 nm-620 nm).
(§4) The IC50 (DC50) value of a compound can be obtained by fitting the following equation Y=Bottom+(TOP−Bottom)/(1+((IC50/X)^hillslope))
(§5) Wherein, X and Y are known values, and IC50, Hillslope, Top and Bottom are the parameters obtained by fitting with software. Y is the inhibition percentage (calculated from the equation), X is the concentration of the compound; IC50 is the concentration of the compound when the 50% inhibition is reached. The smaller the IC50 value is, the stronger the inhibitory ability of the compound is. Vice versa, the higher the IC50 value is, the weaker the ability the inhibitory ability of the compound is; Hillslope represents the slope of the fitted curve, generally around 1*; Bottom represents the minimum value of the curve obtained by data fitting, which is generally 0%±20%; Top represents the maximum value of the curve obtained by data fitting, which is generally 100%±20%. The experimental data were fitted by calculating and analyzing with Dotmatics data analysis software.

EGFR DTC = test: Cell Degradation 3: EGFR degradation in BaF3 cells (DTC), HTRF assay
Method: as §1, §2, §3, §4, §5

EGFR [1] = biological target: T2, EGFR (Homo sapiens, UniProt P00533, DEL746-750); test: Cell Degradation 2: EGFR degradation in HCC827 cells, HTRF assay
T2 construct: endogenous in cells; host or cells: HCC827
T2 sequence (P00533 with tags, fused parts or gaps DEL746-750): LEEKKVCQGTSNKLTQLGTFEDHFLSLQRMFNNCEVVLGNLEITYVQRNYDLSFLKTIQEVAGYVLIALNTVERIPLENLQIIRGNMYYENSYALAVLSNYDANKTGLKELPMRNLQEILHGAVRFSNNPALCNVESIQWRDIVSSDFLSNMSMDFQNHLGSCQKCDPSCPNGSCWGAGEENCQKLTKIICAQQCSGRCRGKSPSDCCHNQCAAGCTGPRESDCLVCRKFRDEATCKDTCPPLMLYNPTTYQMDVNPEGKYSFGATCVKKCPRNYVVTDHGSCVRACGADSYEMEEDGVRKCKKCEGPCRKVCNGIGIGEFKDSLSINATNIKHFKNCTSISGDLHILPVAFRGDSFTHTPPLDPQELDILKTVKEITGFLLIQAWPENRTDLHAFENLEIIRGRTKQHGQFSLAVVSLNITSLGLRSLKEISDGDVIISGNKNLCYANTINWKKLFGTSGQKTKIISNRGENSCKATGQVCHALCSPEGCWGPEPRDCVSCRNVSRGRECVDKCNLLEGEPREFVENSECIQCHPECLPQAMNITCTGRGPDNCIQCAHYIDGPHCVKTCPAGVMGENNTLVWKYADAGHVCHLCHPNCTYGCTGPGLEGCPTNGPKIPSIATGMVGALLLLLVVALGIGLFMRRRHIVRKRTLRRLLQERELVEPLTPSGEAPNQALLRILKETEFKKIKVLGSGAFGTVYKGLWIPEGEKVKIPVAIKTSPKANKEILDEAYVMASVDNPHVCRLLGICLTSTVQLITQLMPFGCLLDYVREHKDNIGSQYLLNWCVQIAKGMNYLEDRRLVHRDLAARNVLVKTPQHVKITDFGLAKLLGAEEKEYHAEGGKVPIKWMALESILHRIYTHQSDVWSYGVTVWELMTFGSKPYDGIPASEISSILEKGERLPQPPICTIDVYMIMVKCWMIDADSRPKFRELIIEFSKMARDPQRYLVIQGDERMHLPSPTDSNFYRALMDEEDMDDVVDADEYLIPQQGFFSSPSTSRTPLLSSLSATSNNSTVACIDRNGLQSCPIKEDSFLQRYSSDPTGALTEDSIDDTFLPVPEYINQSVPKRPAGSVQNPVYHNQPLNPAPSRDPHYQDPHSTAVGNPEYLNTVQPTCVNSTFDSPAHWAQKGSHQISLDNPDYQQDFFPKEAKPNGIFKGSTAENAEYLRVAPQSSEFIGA
T2 sequence (Q96SW2 whole entry partner): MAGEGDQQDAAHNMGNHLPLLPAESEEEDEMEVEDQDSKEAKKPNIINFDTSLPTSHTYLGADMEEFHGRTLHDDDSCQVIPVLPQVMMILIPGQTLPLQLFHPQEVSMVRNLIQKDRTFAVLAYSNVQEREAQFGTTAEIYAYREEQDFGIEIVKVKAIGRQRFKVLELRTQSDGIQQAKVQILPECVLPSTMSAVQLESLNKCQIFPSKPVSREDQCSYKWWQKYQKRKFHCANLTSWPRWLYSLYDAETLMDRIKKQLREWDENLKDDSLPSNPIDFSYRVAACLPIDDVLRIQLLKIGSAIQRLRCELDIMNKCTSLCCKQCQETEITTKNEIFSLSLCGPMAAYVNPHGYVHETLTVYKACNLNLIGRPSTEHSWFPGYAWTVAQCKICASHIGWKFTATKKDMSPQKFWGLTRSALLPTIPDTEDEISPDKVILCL
Method in brief: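 Compound-treated HCC827 cells were lysed after 16 h and EGFR measured by HTRF (337 nm excitation, 665/620 nm emission) after overnight antibody incubation at room temperature. DC50 came from a four-parameter fit of percent inhibition against compound concentration.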

EGFR [2] = biological target: T3, EGFR (Homo sapiens, UniProt P00533, L858R/T790M); test: Cell Degradation 1: EGFR degradation in H1975 cells, HTRF assay
T3 construct: endogenous in cells; host or cells: H1975
T3 sequence (P00533 25-1210 T790M/L858R): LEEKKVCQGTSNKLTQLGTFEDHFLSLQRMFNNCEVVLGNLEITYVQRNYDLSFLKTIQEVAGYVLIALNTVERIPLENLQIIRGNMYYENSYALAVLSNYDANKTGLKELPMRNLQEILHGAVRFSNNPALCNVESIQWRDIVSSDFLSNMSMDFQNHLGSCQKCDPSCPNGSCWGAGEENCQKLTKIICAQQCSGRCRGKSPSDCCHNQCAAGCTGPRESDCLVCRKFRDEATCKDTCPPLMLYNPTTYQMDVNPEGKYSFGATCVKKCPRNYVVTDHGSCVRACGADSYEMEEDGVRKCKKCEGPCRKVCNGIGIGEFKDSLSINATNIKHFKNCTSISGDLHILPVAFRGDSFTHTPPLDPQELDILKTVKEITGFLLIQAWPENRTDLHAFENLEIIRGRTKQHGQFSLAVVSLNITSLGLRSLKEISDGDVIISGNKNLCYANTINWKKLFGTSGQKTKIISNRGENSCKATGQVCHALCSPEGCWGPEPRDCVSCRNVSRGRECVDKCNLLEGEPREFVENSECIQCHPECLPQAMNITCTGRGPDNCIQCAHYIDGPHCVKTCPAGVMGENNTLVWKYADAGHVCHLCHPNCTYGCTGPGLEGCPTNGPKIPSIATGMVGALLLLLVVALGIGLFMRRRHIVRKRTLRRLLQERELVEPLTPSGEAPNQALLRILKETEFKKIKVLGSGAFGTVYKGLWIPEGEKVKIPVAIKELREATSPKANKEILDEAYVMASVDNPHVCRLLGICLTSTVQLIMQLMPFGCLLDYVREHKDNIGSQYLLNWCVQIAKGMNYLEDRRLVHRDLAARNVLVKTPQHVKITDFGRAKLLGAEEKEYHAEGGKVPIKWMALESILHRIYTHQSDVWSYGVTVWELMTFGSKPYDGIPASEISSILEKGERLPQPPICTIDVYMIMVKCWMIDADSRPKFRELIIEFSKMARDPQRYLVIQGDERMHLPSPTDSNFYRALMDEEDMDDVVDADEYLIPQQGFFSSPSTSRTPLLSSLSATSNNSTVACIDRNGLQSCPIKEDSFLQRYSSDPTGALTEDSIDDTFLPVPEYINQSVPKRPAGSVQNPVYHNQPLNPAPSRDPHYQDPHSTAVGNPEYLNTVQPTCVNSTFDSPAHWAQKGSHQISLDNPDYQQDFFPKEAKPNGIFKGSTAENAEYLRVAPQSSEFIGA
Method in brief: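 H1975 cells treated with compound for 16 h, lysed 1 h at room temperature. EGFR measured by HTRF after overnight antibody incubation (665/620 nm). DC50 from four-parameter logistic fit of percent inhibition against concentration.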

SMILES | DC50 (EGFR LTC) | other results
CCOc1cc(N2CCC(N3CCN(CCc4cc(F)c([C@H]5CCC(=O)NC5=O)c(F)c4)CC3)CC2)c(CC)cc1Nc1ncc(Br)c(Nc2ccc(CC)c3c2N(S(C)(=O)=O)CC3)n1 [Example 203, (R)-3-(4-(2-(4-(1-(4-((5-bromo-4-((4-ethyl-1-(methylsulfonyl)indolin-7-yl)amino)pyrimidin-2-yl)amino)-5-ethoxy-2-ethylphenyl)piperidin-4-yl)piperazin-1-yl)ethyl)-2,6-difluorophenyl)piperidine-2,6-dione] | 83 nM | –
CCc1cc(Nc2ncc(Br)c(Nc3ccc(C(F)(F)F)c4c3N(S(C)(=O)=O)CC4)n2)c(OC)cc1N1CCC(N2CCN(C(=O)[C@@H]3CCN(c4cc(F)c([C@H]5CCC(=O)NC5=O)c(F)c4)C3)CC2)CC1 [Example 197, (R)-3-(4-((R)-3-(4-(1-(4-((5-bromo-4-((1-(methylsulfonyl)-4-(trifluoromethyl)indolin-7-yl)amino)pyrimidin-2-yl)amino)-2-ethyl-5-methoxyphenyl)piperidin-4-yl)piperazine-1-carbonyl)pyrrolidin-1-yl)-2,6-difluorophenyl)piperidine-2,6-dione] | 83 nM | –
CCc1cc(Nc2ncc(Br)c(Nc3ccc(CC)c4c3N(S(C)(=O)=O)CC4)n2)c(OC)cc1N1CCC(N2CCN(C(=O)[C@@H]3CCN(c4cc(F)c([C@H]5CCC(=O)NC5=O)c(F)c4)C3)CC2)CC1 [Example 198, (R)-3-(4-((R)-3-(4-(1-(4-((5-bromo-4-((4-ethyl-1-(methylsulfonyl)indolin-7-yl)amino)pyrimidin-2-yl)amino)-2-ethyl-5-methoxyphenyl)piperidin-4-yl)piperazine-1-carbonyl)pyrrolidin-1-yl)-2,6-difluorophenyl)piperidine-2,6-dione] | 34 nM | –
CCc1cc(Nc2ncc(Br)c(Nc3ccc(N(C)C)c4c3N(S(C)(=O)=O)CC4)n2)c(OC)cc1N1CCC(N2CCN(CCc3cc(F)c([C@H]4CCC(=O)NC4=O)c(F)c3)CC2)CC1 [Example 200, (R)-3-(4-(2-(4-(1-(4-((5-bromo-4-((4-(dimethylamino)-1-(methylsulfonyl)indolin-7-yl)amino)pyrimidin-2-yl)amino)-2-ethyl-5-methoxyphenyl)piperidin-4-yl)piperazin-1-yl)ethyl)-2,6-difluorophenyl)piperidine-2,6-dione] | 513 nM | –
CCc1cc(Nc2ncc(Br)c(Nc3ccc(CC)c4c3N(S(C)(=O)=O)CC4)n2)c(OC)cc1N1CCC(N2CCN(CCc3cc(F)c(C4CCC(=O)NC4=O)c(F)c3)CC2)CC1 (stereo not shown) [Example 192, 3-(4-(2-(4-(1-(4-((5-bromo-4-((4-ethyl-1-(methylsulfonyl)indolin-7-yl)amino)pyrimidin-2-yl)amino)-2-ethyl-5-methoxyphenyl)piperidin-4-yl)piperazin-1-yl)ethyl)-2,6-difluorophenyl)piperidine-2,6-dione] | 65 nM | –
CCc1cc(Nc2ncc(Br)c(Nc3ccc(F)c4c3N(S(C)(=O)=O)CC4)n2)c(OC)cc1N1CCC(N2CCN(CCc3cc(F)c([C@H]4CCC(=O)NC4=O)c(F)c3)CC2)CC1 [Example 195, (R)-3-(4-(2-(4-(1-(4-((5-bromo-4-((4-fluoro-1-(methylsulfonyl)indolin-7-yl)amino)pyrimidin-2-yl)amino)-2-ethyl-5-methoxyphenyl)piperidin-4-yl)piperazin-1-yl)ethyl)-2,6-difluorophenyl)piperidine-2,6-dione] | 24 nM | –
CCc1cc(Nc2ncc(Br)c(Nc3ccc(F)c4c3N(S(C)(=O)=O)CC4)n2)c(OC)cc1N1CCC(N2CCN(C(=O)[C@@H]3CCN(c4cc(F)c([C@H]5CCC(=O)NC5=O)c(F)c4)C3)CC2)CC1 [Example 194, (R)-3-(4-((R)-3-(4-(1-(4-((5-bromo-4-((4-fluoro-1-(methylsulfonyl)indolin-7-yl)amino)pyrimidin-2-yl)amino)-2-ethyl-5-methoxyphenyl)piperidin-4-yl)piperazine-1-carbonyl)pyrrolidin-1-yl)-2,6-difluorophenyl)piperidine-2,6-dione] | 29 nM | –
CN(CCC1CCN(c2ccc3c(c2)C(=O)N(C2CCC(=O)NC2=O)C3=O)CC1)C1CCN(c2ccc(Nc3ncc(Cl)c(Nc4cccc5c4N(S(C)(=O)=O)CC5)n3)c3c2CCO3)CC1 (stereo not shown) [Example 47, 5-(4-(2-((1-(7-((5-chloro-4-((1-(methylsulfonyl)indolin-7-yl)amino)pyrimidin-2-yl)amino)-2,3-dihydrobenzofuran-4-yl)piperidin-4-yl)(methyl)amino)ethyl)piperidin-1-yl)-2-(2,6-dioxopiperidin-3-yl)isoindoline-1,3-dione] | – | DC50 (EGFR [1]): 13.8 nM; DC50 (EGFR [2]): 21.4 nM
COc1cc(N2CCC(N3CCN(CCc4ccc(C5CCC(=O)NC5=O)cc4)CC3)CC2)ccc1Nc1nc(Nc2cccc3c2N(S(C)(=O)=O)CC3)c2cc[nH]c2n1 (stereo not shown) [Example 21, 3-(4-(2-(4-(1-(3-methoxy-4-((4-((1-(methylsulfonyl)indolin-7-yl)amino)-7H-pyrrolo[2,3-d]pyrimidin-2-yl)amino)phenyl)piperidin-4-yl)piperazin-1-yl)ethyl)phenyl)piperidine-2,6-dione] | – | DC50 (EGFR [1]): 113 nM; DC50 (EGFR [2]): 38.4 nM

Now from value to molecule, other results behind:

DC50 (EGFR LTC) | SMILES | other results
162 nM | CCc1cc(Nc2ncc(Br)c(Nc3cccc4c3N(S(C)(=O)=O)CC4)n2)c(OC)cc1N1CCC(N2CCN(CCC3CCN(c4cc(F)c(C5CCC(=O)NC5=O)c(F)c4)CC3)CC2)CC1 (stereo not shown) [Example 160, 3-(4-(4-(2-(4-(1-(4-((5-bromo-4-((1-(methylsulfonyl)indolin-7-yl)amino)pyrimidin-2-yl)amino)-2-ethyl-5-methoxyphenyl)piperidin-4-yl)piperazin-1-yl)ethyl)piperidin-1-yl)-2,6-difluorophenyl)piperidine-2,6-dione] | DC50 (EGFR DTC): 150 nM
30 nM | COc1cc(N2CCC(N3CCN(CC4CN(c5ccc6c(c5)C(=O)N(C5CCC(=O)NC5=O)C6)C4)CC3)CC2)c(C)cc1Nc1ncc(Br)c(Nc2cccc3c2N(S(C)(=O)=O)CC3)n1 (stereo not shown) [Example 180, 3-(6-(3-((4-(1-(4-((5-bromo-4-((1-(methylsulfonyl)indolin-7-yl)amino)pyrimidin-2-yl)amino)-5-methoxy-2-methylphenyl)piperidin-4-yl)piperazin-1-yl)methyl)azetidin-1-yl)-1-oxoisoindolin-2-yl)piperidine-2,6-dione] | DC50 (EGFR DTC): 14 nM
69 nM | COc1cc(N2CCC(N3CCN(CCc4cc(Cl)c(C5CCC(=O)NC5=O)cc4F)CC3)CC2)c(C)cc1Nc1ncc(Br)c(Nc2cccc3c2N(S(C)(=O)=O)CC3)n1 (stereo not shown) [Example 174, 3-(4-(2-(4-(1-(4-((5-bromo-4-((1-(methylsulfonyl)indolin-7-yl)amino)pyrimidin-2-yl)amino)-5-methoxy-2-methylphenyl)piperidin-4-yl)piperazin-1-yl)ethyl)-2-chloro-5-fluorophenyl)piperidine-2,6-dione] | DC50 (EGFR DTC): 30 nM
74 nM | CCc1cc(Nc2ncc(Br)c(Nc3ccc(C4CC4)c4c3N(S(C)(=O)=O)CC4)n2)c(OC)cc1N1CCC(N2CCN(CCc3cc(F)c(C4CCC(=O)NC4=O)c(F)c3)CC2)CC1 (stereo not shown) [Example 193, 3-(4-(2-(4-(1-(4-((5-bromo-4-((4-cyclopropyl-1-(methylsulfonyl)indolin-7-yl)amino)pyrimidin-2-yl)amino)-2-ethyl-5-methoxyphenyl)piperidin-4-yl)piperazin-1-yl)ethyl)-2,6-difluorophenyl)piperidine-2,6-dione] | –
71 nM | CCc1cc(Nc2ncc(Br)c(Nc3ccc(C(F)(F)F)c4c3N(S(C)(=O)=O)CC4)n2)c(OC)cc1N1CCC(N2CCN(C(=O)C3CN(c4cc(F)c([C@H]5CCC(=O)NC5=O)c(F)c4)C3)CC2)CC1 [Example 196, (R)-3-(4-(3-(4-(1-(4-((5-bromo-4-((1-(methylsulfonyl)-4-(trifluoromethyl)indolin-7-yl)amino)pyrimidin-2-yl)amino)-2-ethyl-5-methoxyphenyl)piperidin-4-yl)piperazine-1-carbonyl)azetidin-1-yl)-2,6-difluorophenyl)piperidine-2,6-dione] | –
